The structures appear in SMILES notation.

One assay deals with Utrophin A promoter linked to a luciferase reporter gene. The experiment in a line: Luciferase reporter assay (murine H2K cells). The class given is cell-based. The following applies: Mus musculus, H2K mdx, luciferase level relative to control; H2K/mdx/Utro A reporter cells; compound 10 μM final concentration; read-out: Activity. On the procedure:
1. Luciferase Reporter Assay (Murine H2K Cells)
The cell line used for the screen is an immortalized mdx mouse H2K cell line that has been stably transfected with a plasmid containing […] fragment of the Utrophin A promoter including the first untranslated exon linked to a luciferase reporter gene. Under conditions of low temperature and interferon containing media, the cells remain as myoblasts. These are plated into 96 well plates and cultured in the presence of compound for three days. The level of luciferase is then determined by cell lysis and reading of the light output from the expressed luciferase gene utilising a plate luminometer.
H2K/mdx/Utro A reporter Cell Line Maintenance
The cells were grown at 33° C. in the presence of 10% CO2. To remove the myoblasts for platting, they were incubated with Trypsin EDTA until the monolayer started to detach.
The plates were then incubated at 33° C. in the presence of 10% CO2 for 24 hrs. Compounds were dosed by adding 10 μl of diluted compound to each well giving a final concentration of 10 μM. The plates were then incubated for a further 48 hrs. Cells were then lysed in situ following the manufacture's protocols (Promega Steady-Glo Luciferase Assay System (E2520). Then counted for 10 seconds using a plate luminometer (Victor1420).
Compounds for screening were stored at −20° C. as 10 mM stocks in 100% DMSO until required.
Biological activity as assessed using the luciferase reporter assay in murine H2K cells, and is classified as follows: […]
On the technique in general: A reporter such as luciferase makes a cellular process visible.
With `Cc1cc(-c2nc3ccccc3[nH]2)ccc1[N+](=O)[O-]` [Example 105, 2-(3-methyl-4-nitrophenyl)-1H-benzo[d]imidazole], the activity at 10 µM was more than 401%. For `CC(C)C(=O)Nc1ccc2oc(-c3ccc4ccccc4c3)nc2c1` [Example 384, N-(2-(naphthalen-2-yl)benzo[d]oxazol-5-yl)isobutyramide], the activity at 10 µM was 301 to 400%. For `CCN(CC)c1ccc(-c2nc3cc(NC(=O)c4ccncc4)ccc3o2)cc1` [Example 61, N-(2-(4-(diethylamino)phenyl)benzo[d]oxazol-5-yl)isonicotinamide], the activity at 10 µM was less than 200%.

As to `CCN(CC)c1ccc(-c2nc3cc(S(=O)(=O)CC)ccc3o2)cc1` [Example 144, N,N-diethyl-4-(5-(ethylsulfonyl)benzo[d]oxazol-2-yl)aniline], the activity at 10 µM is less than 200%. On the same count and under the same terms, the value for `CCCC(=O)Nc1ccc2[nH]c(-c3ccccc3)nc2c1` [Example 194, N-(2-phenyl-1H-benzo[d]imidazol-5-yl)butyramide] was 201 to 300%. `O=C(Cc1ccccc1)Nc1ccc2oc(Cc3ccccc3)nc2c1` [Example 165, N-(2-benzylbenzo[d]oxazol-5-yl)-2-phenylacetamide]: the activity at 10 µM was less than 200%. On the same count and under the same terms, for `Clc1ccc(-c2nc3cc(Br)ccc3o2)cc1` [Example 288, 5-bromo-2-(4-chlorophenyl)benzo[d]oxazole] the value was more than 401%. Still for that read-out and setting: for `CCS(=O)(=O)c1ccc2oc(-c3sccc3C)nc2c1` [Example 436, 5-(ethylsulfonyl)-2-(3-methylthiophen-2-yl)benzo[d]oxazole] the value was 201 to 300%; for `Cc1ccc(-c2nc3ccc([N+](=O)[O-])cc3o2)cc1` [Example 190, 6-nitro-2-p-tolylbenzo[d]oxazole], 301 to 400%; for `CC(C)C(=O)Nc1ccc2ccn(Cc3ccccc3)c2c1` [Example 387, N-(1-benzyl-1H-indol-6-yl)isobutyramide], less than 200%. As to `CCCC(=O)Nc1ccc2oc(-c3cccc(C)c3)nc2c1` [Example 200, N-(2-m-tolylbenzo[d]oxazol-5-yl)butyramide], the activity at 10 µM was more than 401%. Take `O=C(Nc1ccc2oc(-c3ccc(Cl)cc3)nc2c1)c1ccco1` [Example 102, N-(2-(4-chlorophenyl)benzo[d]oxazol-5-yl)furan-2-carboxamide]: the activity at 10 µM is less than 200%.

As for `O=C(Nc1ccc(-c2nc3ccc(Cl)cc3o2)cc1)c1cccs1` [Example 334, N-(4-(6-chlorobenzo[d]oxazol-2-yl)phenyl)thiophene-2-carboxamide], the activity at 10 µM is less than 200%.

As for `O=[N+]([O-])c1ccc2nc(-c3ccccn3)oc2c1` [Example 223, 6-nitro-2-(pyridin-2-yl)benzo[d]oxazole], the activity at 10 µM was less than 200%. For the compound `CCN(CC)c1ccc(-c2nc3cc(NC(=O)c4ccc(F)cc4)ccc3o2)cc1` [Example 71, N-(2-(4-(diethylamino)phenyl)benzo[d]oxazol-5-yl)-4-fluorobenzamide], the activity at 10 µM is less than 200%.

With `CC(C)S(=O)(=O)c1ccc2oc(-c3ccc(Cl)cc3)nc2c1` [Example 281, 2-(4-chlorophenyl)-5-(isopropylsulfonyl)benzo[d]oxazole], the activity at 10 µM was more than 401%. Consider `COc1ccc(C(=O)Nc2ccc3oc(-c4cccnc4)nc3c2)cc1` [Example 42, 4-methoxy-N-(2-(pyridin-3-yl)benzo[d]oxazol-5-yl)benzamide], for which the activity at 10 µM was less than 200%.

The assay is the same for the next values; noted with them: luciferase reporter assay in murine H2K cells; classified relative to control.
Regarding `Cn1c(CNc2ccc(Cl)cc2)nc2ccccc21` [Example 666], the Activity result is “++ (Between 201% and 300% relative to control)”. `Cc1ccc(C(=O)Nc2nc3ccccc3s2)c(Cl)c1` [Example 567]: the Activity result is “+ (Up to 200% relative to control)”. As for `O=C(Nc1ccc2c(c1)OCO2)c1sc2ccccc2c1Cl` [Example 618], the Activity entry is on record as “++++ (Above 401% relative to control)”. As to `Cc1ccc(C)c(OCc2nc3ccccc3[nH]2)c1` [Example 548], the Activity result is reported as “+ (Up to 200% relative to control)”.

Source of the values: patent US8501713B2, “Drug combinations for the treatment of duchenne muscular dystrophy” (Summit Corporation PLC, priority 2007, dated 2013).
